Test system: harmaline induced tremor
Assay: Inhibition of harmaline induced tremor by T-type channel blockers, measured with tremor quantification apparatus
Type: in vivo, mouse
Description: In the screening method of the present invention, symptoms of essential tremor of step 3) are involuntary, regular movements of hands, arms, head, face, vocal band, trunk or legs. The symptoms can be checked by movement artifact of electroenphalograph (EEG) or tremor quantification apparatus, but not always limited thereto. The tremor quantification apparatus herein is to detect tremor of the mouse, in which stainless test cage is hung on the support and the bottom of the cage is attached with accelerometer connected with electric wire to analog-digital converter so that the generated analog signals can be converted into digital signals recognizable by computer. Thereby, tremor of the mouse can be measured by analyzing the digital signals recognized by computer. […] When the strength of oscillation for 5 seconds under the frequency of 10-18 Hz, that is the characteristic frequency of harmaline induced tremor, was at least 65 dB, it was diagnosed as tremor and the time point of break (onset), duration, strength, and the maximum frequency were all measured and compared between the wild type mice and the transgenic mice. The method for measuring tremor is developed on the basis of described method in the following references (Long M A. et al., J. Neurosci. 2002 Dec. 15, 22(24):10898-905; Milner, T E. et al., J. Neurophysiol. 1995 June, 73(6):2568-77).
The α1G−/−transgenic mice generated in Example 1 and the wild-type mice were administered with the tremor inducing agents, oxotremorine (0.3 mg/kg), penitrem A (1.0 mg/kg) and harmaline (9 mg/kg) respectively by intraperitoneal injection to induce tremor. Tremor was investigated by using movement artifact of electroenphalograph (EEG) and tremor quantification apparatus designed by the present inventors. […] The accelerometer was connected to analog-digital converter (Digidata1320, Axon instrument Inc) by electric wire so that the generated analog signals could be converted into digital signals recognizable by computer. Thereby, tremor of the mouse was measured by analyzing the digital signals recognized by computer. The accelerometer was quipped to the test cage where the animals were located, and the test cage was hung in the air. The level of tremor of the animal was quantified by measuring the oscillation of the test cage. […] When the strength of oscillation for 5 seconds under the frequency of 10-18 Hz, that is the characteristic frequency of harmaline induced tremor, was at least 65 dB, it was diagnosed as tremor and the time point of development of tremor (onset), duration, strength, and the maximum frequency were all measured and compared between the wild type mice and the knockout mice.
The wild-type mouse (α1G+/+) was administered with 10 mg/kg of mibefradil by intraperitoneal injection 30 minutes before harmaline injection to investigate the therapeutic effect of mibefradil on harmaline induced tremor. In the meantime, osmotic pump (Model 1002, 0.25 ul/hour, Alzet) containing 20 mM of mibefradil was inserted into the brain of the wild-type mouse (α1G+/+). Two days later, the therapeutic effect on harmaline induced tremor was investigated by using the tremor quantification apparatus of Example 2.
The wild-type mice (α1G+/+) were administered with 150 mg/kg and 300 mg/kg of ethosuximide by intraperitoneal injection 30 minutes before harmaline injection to investigate the therapeutic effect of ethosuximide on harmaline induced tremor. For the investigation, the tremor quantification apparatus of Example 2 was used.

[1] = wild-type mice (α1G+/+), 300 mg/kg intraperitoneal injection 30 minutes before harmaline injection

| Structure (SMILES) | tremor inhibiting effect on harmaline induced tremor (wild-type mice (α1G+/+), 150 mg/kg intraperitoneal injection 30 minutes before harmaline injection) | mice that did not exhibit oscillation, symptom of tremor [1] | mice that showed tremor [1] | tremor inhibiting effect on harmaline induced tremor [1] | tremor inhibiting effect on harmaline induced tremor (wild-type mouse (α1G+/+), 10 mg/kg intraperitoneal injection 30 minutes before harmaline injection) | tremor inhibiting effect on harmaline induced tremor (wild-type mouse (α1G+/+), osmotic pump containing 20 mM, 0.25 ul/hour, directly into inferior olive (IO) of the brain, two days later) |
| --- | --- | --- | --- | --- | --- | --- |
| CCC1(C)CC(=O)NC1=O (stereo not drawn) [ethosuximide] | tremor inhibiting effect was observed | 60% | 40% | tremor inhibiting effect was observed |  |  |
| COCC(=O)O[C@]1(CCN(C)CCCc2nc3ccccc3[nH]2)CCc2cc(F)ccc2[C@@H]1C(C)C [mibefradil] |  |  |  |  | tremor inhibiting effect was not detected | tremor inhibiting effect was observed |

Reference: patent US20120014880A1, “METHOD FOR THE PREVENTION AND TREATMENT OF ESSENTIAL TREMOR BY REGULATING alpha1G T-TYPE CALCIUM CHANNEL OR BY T-TYPE CALCIUM CHANNEL BLOCKERS” (Korea Advanced Institute of Science and Technology, priority 2007, published 2012)
